Data on 45 compounds can be found in US20100105722A1, “Substituted 4,5,6,7-tetrahydrothienopyridines as KCNQ2/3 Modulators” (GRUENENTHAL GmbH, priority 2008, published 2010).

Like-named read-outs stand apart in the source and are kept apart here.

This assay deals with T1, hKCNQ2/3 (Homo sapiens, UniProt O43525+O43526).
T1 construct: expressed in transfected cells; host or cells: CHO-K1
As to the kind of experiment: Fluorescence assay using a voltage sensitive dye (fluorimetry). In kind it is cell-based. The following applies: for Fluorimetry % Efficacy @ 10 μM (reti-gabine = 100%) / Emax at 10 µM: relative to retigabine = 100%. The procedure: Fluorescence Assay using a Voltage Sensitive Dye
Human CHO-K1 cells expressing KCNQ2/3 channels are cultivated adherently at 37° C., 5% CO2 and 95% humidity in cell culture bottles (e.g. 80 cm^2 TC flasks, Nunc) with DMEM-high glucose (Sigma Aldrich, D7777) including 10% FCS (PAN Biotech, e.g. 3302-P270521) or alternatively MEM Alpha Medium (1×, liquid, Invitrogen, #22571), 10% fetal calf serum (FCS) (Invitrogen, #10270-106, heat-inactivated) and the necessary selection antibiotics.
Before being sown out for the measurements, the cells are washed with a 1×DPBS buffer without Ca^2+/Mg^2+ (e.g. Invitrogen, #14190-094) and detached from the bottom of the culture vessel by means of Accutase (PAA Laboratories, #L11-007) (incubation with Accutase for 15 min at 37° C.). The cell count then present is determined using a CASY™ cell counter (TCC model, Schärfe System) in order subsequently to apply, depending on the density optimization for the individual cell line, 20,000-30,000 cells/well/100 μl of the described nutrient medium to 96-well measuring plates of the Corning™ CellBIND™ type (Flat Clear Bottom Black Polystyrene Microplates, #3340). Incubation is then carried out for one hour at room temperature, without gassing or adjusting the humidity, followed by incubation for 24 hours at 37° C., 5% CO2 and 95% humidity.
The voltage-sensitive fluorescent dye from the Membrane Potential Assay Kit (Red™ Bulk format part R8123 for FLIPR, MDS Analytical Technologies™) is prepared by dissolving the contents of a vessel Membrane Potential Assay Kit Red Component A in 200 ml of extracellular buffer (ES buffer, 120 mM NaCl, 1 mM KCl, 10 mM HEPES, 2 mM CaCl2, 2 mM MgCl2, 10 mM glucose; pH 7.4). After removal of the nutrient medium, the cells are washed with 200 μl of ES buffer, then covered with a layer of 100 μl of the dye solution prepared above and incubated for 45 min at room temperature with the exclusion of light.
The fluorescence measurements are carried out with a BMG Labtech FLUOstar™, BMG Labtech NOVOstar™ or BMG Labtech POLARstar™ instrument (525 nm excitation, 560 nm emission, Bottom Read mode). After incubation of the dye, 50 μl of the test substances in the desired concentrations, or 50 μl of ES buffer for control purposes, are introduced into separate cavities of the measuring plate and incubated for 30 min at room temperature while being shielded from light. The fluorescence intensity of the dye is then measured for 5 min and the fluorescence value F1 of each well is thus determined at a given, constant time. 15 μl of a […] KCl solution ([…]) are then added to each well. The change in fluorescence is subsequently measured until all the relevant measured values have been obtained (mainly 5-30 min). At a given time after KCl application, a fluorescence value F2 is determined, in this case at the time of the fluorescence peak.
For calculation, the fluorescence intensity F2 is compared with the fluorescence intensity F1, and the agonistic activity of the target compound on the potassium channel is determined therefrom. F2 and F1 are calculated as follows: […]
In order to determine whether a substance has agonistic activity, […]
for example, can be compared with […]
is determined by adding to the reaction batch only the buffer solution instead of the test substance, determining the value F1K of the fluorescence intensity, adding the potassium ions as described above, and measuring a value F2K of the fluorescence intensity. F2K and F1K are then calculated as follows: […]
A substance has an agonistic activity on the potassium channel when […]
Independently of the comparison of […]
it is possible to conclude that a target compound has agonistic activity if an increase in […]
is to be observed as the dosage of the target compound increases.
Calculations of EC50 and IC50 values are carried out with the aid of ‘Prism v4.0’ software (GraphPad Software™).

[1] abbreviates: 10 μM, CHO-K1 cells expressing KCNQ2/3, Table 3.
The mark [2] stands for this setting: CHO-K1 cells expressing KCNQ2/3, Table 3.
Setting [3] is: CHO-K1, 10 μM, CHO-K1 cells expressing KCNQ2/3, Table 3, read-out: Fluorimetry % Efficacy @ 10 μM (reti-gabine = 100%).

For `O=C(NCc1cccc(C(F)(F)F)c1)C1CCCCC1C(=O)N1CCc2sccc2C1c1ccccc1` (mixture of isomers) [compound 31], the “Fluorimetry % Efficacy @ 10 μM (reti-gabine = 100%)” value under setting [1] is −44%. Under setting [2], the half-maximal inhibitory concentration (IC50) (commonly the concentration needed to halve the response being measured) turned out to be 250 nM.
In the case of `O=C(CCC(=O)N1CCn2cccc2C1c1cccs1)NCc1cccc(C(F)(F)F)c1` (stereo not drawn) [Example No. 76 of WO 2008/046582, reference compound], under “10 μM, comparison experiments table, read-out: Fluorimetry % Efficacy @ 10 μM (retigabine = 100%)”, the Emax at 10 µM was found to be 113%. Besides, the EC50 (commonly the concentration giving half of the maximal effect) (comparison experiments table) was determined as 3290 nM.
As for `Cc1cccc(C2c3ccsc3CCN2C(=O)CCC(=O)NCc2cccc(C(F)(F)F)c2)c1` (stereo not drawn) [compound 4], the Emax at 10 µM under setting [3] amounted to 102%. The half-maximal effective concentration (EC50) under setting [2] worked out at 456 nM.
The like results for `Cc1ccc(C2c3ccsc3CCN2C(=O)CCC(=O)NCc2cccc(C(F)(F)F)c2)cc1` (stereo not drawn) [compound 5] were, in that order, 61% and more than 1660 nM.
`O=C(CCC(=O)N1CCc2sccc2C1c1ccccc1F)NCc1cccc(C(F)(F)F)c1` (stereo not drawn) [compound 6]: the Emax at 10 µM under setting [3] was determined as 133%. Under setting [2], a half-maximal response (EC50) required 284 nM.
The like results for `O=C(CCC(=O)N1CCc2sccc2C1c1ccc(F)cc1)NCc1cccc(C(F)(F)F)c1` (stereo not drawn) [compound 7] were, in that order, 132% and 348 nM.
The like results for `O=C(CCC(=O)N1CCc2ccsc2C1c1ccccc1)NCc1cccc(C(F)(F)F)c1` (stereo not drawn) [compound 9] were, in that order, 110% and 407 nM.
`Cc1cc2c(s1)CCN(C(=O)CCC(=O)NCc1cccc(C(F)(F)F)c1)C2c1ccccc1` (stereo not drawn) [compound 10]: under setting [3], the Emax at 10 µM came out at 121%. The compound also yielded an EC50 under setting [2] of 382 nM.
The like results for `O=C(CCC(=O)N1CCc2sccc2C1c1ccccc1)NCc1ccc(C(F)(F)F)cc1` (stereo not drawn) [compound 13] were, in that order, 51% and 375 nM.
`COc1ccccc1CNC(=O)CCC(=O)N1CCc2sccc2C1c1ccccc1` (stereo not drawn) [compound 14]: the Emax at 10 µM under setting [3] is -54%.
Still for that read-out and setting: the same measure for `COc1cccc(CNC(=O)CCC(=O)N2CCc3sccc3C2c2ccccc2)c1` (stereo not drawn) [compound 15]: -46%.
Still for that read-out and setting: the same measure for `COc1ccc(CNC(=O)CCC(=O)N2CCc3sccc3C2c2ccccc2)cc1` (stereo not drawn) [compound 16]: 21%.
Take `O=C(CCC(=O)N1CCc2sccc2C1c1ccccc1)NCc1cccc(F)c1` (stereo not drawn) [compound 18]: the Emax at 10 µM under setting [3] amounted to 11%. The same compound came in with an EC50 under setting [2] of 2180 nM.
As to `Cc1cccc(CNC(=O)CCC(=O)N2CCc3sccc3C2c2ccccc2)c1` (stereo not drawn) [compound 19], under setting [3], the Emax at 10 µM was -45%.
Regarding `Cc1csc2c1C(c1ccccc1)N(C(=O)CCC(=O)NCc1cccc(C(F)(F)F)c1)CC2` (stereo not drawn) [compound 20], the Emax at 10 µM under setting [3] is 54%. Under setting [2], the EC50 is 722 nM.
In the case of `O=C(CCC(=O)N1CCc2sccc2C1C1CCCCC1)NCc1cccc(C(F)(F)F)c1` (stereo not drawn) [compound 21], the Emax at 10 µM under setting [3] amounted to 148%. The compound also registered an EC50 under setting [2] of 324 nM.
With `CC(C)C1c2ccsc2CCN1C(=O)CCC(=O)NCc1cccc(C(F)(F)F)c1` (stereo not drawn) [compound 22], under setting [3], the Emax at 10 µM is 139%. Also, the midpoint of the response under setting [2], the EC50, lay at 1220 nM.
The like results for `CCCCC1c2ccsc2CCN1C(=O)CCC(=O)NCc1cccc(C(F)(F)F)c1` (stereo not drawn) [compound 23] were, in that order, 146% and 947 nM.
Turning to `O=C(CCC(=O)N1CCc2sccc2C1c1ccccc1)NCCc1ccccc1` (stereo not drawn) [compound 25], the Emax at 10 µM under setting [3] was 12%.
On the same count and under the same terms, with `Cc1ccccc1CNC(=O)CCC(=O)N1CCc2sccc2C1c1ccccc1` (stereo not drawn) [compound 26] the figure was -20%.
Consider `O=C(NCc1cccc(C(F)(F)F)c1)C(CC(=O)N1CCc2sccc2C1c1ccccc1)c1ccccc1` (stereo not drawn) [compound 27], for which the Emax at 10 µM under setting [3] was 119%. For the same compound, the EC50 under setting [2] is more than 404 nM.
As to `C[C@H](CC(=O)N1CCc2sccc2C1c1ccccc1)C(=O)NCc1cccc(C(F)(F)F)c1` (stereo partly drawn) [compound 28], the Emax at 10 µM under setting [3] amounted to 106%. The same compound showed a 50% effective concentration (EC50) under setting [2] of 540 nM.
Take `O=C(CC(C(=O)N1CCc2sccc2C1c1ccccc1)c1ccccc1)NCc1cccc(C(F)(F)F)c1` (stereo not drawn) [compound 29]: the Emax at 10 µM under setting [3] is -45%. Under setting [2], this compound returned a half-maximal inhibitory concentration (IC50) of 133 nM.
For `O=C(CC(C(=O)N1CCc2sccc2C1)c1ccccc1)NCc1cccc(C(F)(F)F)c1` (stereo not drawn) [compound 30], the Emax at 10 µM under setting [3] was -101%. The compound further returned a concentration for half-maximal inhibition (IC50) under setting [2] of 212 nM.
In the case of `O=C(NCc1cccc(C(F)(F)F)c1)C1CCCCC1C(=O)N1CCc2sccc2C1c1ccccc1` (stereo not drawn) [compound 32], the “Fluorimetry % Efficacy @ 10 μM (reti-gabine = 100%)” value under setting [1] turned out to be 110%. Under setting [2], the midpoint of the response, the EC50, lay at 414 nM.
Regarding `C[C@H](CC(=O)NCc1cccc(C(F)(F)F)c1)C(=O)N1CCc2sccc2C1c1ccccc1` (stereo partly drawn) [compound 34], the Emax at 10 µM under setting [3] was determined as 179%. This compound returned an EC50 under setting [2] of 628 nM.
Under setting [2], `O=C(CCC(=O)N1CCc2sccc2C1c1ccccc1)NCc1cccc(C(F)(F)F)c1` (stereo not drawn) [compound 35] registered a 50% effective concentration (EC50) of 572 nM.
On the same count and under the same terms, the same measure for `O=C(CCC(=O)N1CCc2sccc2C1c1ccccc1)NCc1cccc(C(F)(F)F)c1` (stereo not drawn) [compound 36]: 707 nM.
The same measure, in the same setting: the same measure for `O=C(CCC(=O)N1CCc2sccc2C1c1ccccc1)NCc1cccc(C(F)(F)F)c1F` (stereo not drawn) [compound 40]: 156 nM; for `O=C(CCC(=O)N1CCc2sccc2C1c1ccccc1)NCc1cc(F)cc(C(F)(F)F)c1` (stereo not drawn) [compound 41]: 261 nM.
Take `Cc1scc2c1CCN(C(=O)CCC(=O)NCc1cccc(C(F)(F)F)c1)C2c1ccccc1` (stereo not drawn) [compound 45]: under setting [3], the Emax at 10 µM was determined as 39%. Further, under setting [2], it took 311 nM to reach a half-maximal effect (EC50).
In the case of `COc1ccc(NC(=O)CCC(=O)N2CCc3sccc3C2c2ccc(C)cc2)cc1` (stereo not drawn) [compound 46], the Emax at 10 µM under setting [3] is 35%.
On to `Cc1ccc(C2c3ccsc3CCN2C(=O)CCC(=O)Nc2ccc3cnn(C)c3c2)cc1` (stereo not drawn) [compound 47], for which the Emax at 10 µM under setting [3] is 37%.
Take `Cc1ccc(C2c3ccsc3CCN2C(=O)CCC(=O)NCc2ccccc2)cc1` (stereo not drawn) [compound 48]: under setting [3], the Emax at 10 µM was -15%.
Still for that read-out and setting: the same measure for `Cc1ccc(C2c3ccsc3CCN2C(=O)CCC(=O)NCCc2ccccc2)cc1` (stereo not drawn) [compound 49]: 38%; for `Cc1ccc(C2c3ccsc3CCN2C(=O)CCC(=O)NCc2ccncc2)cc1` (stereo not drawn) [compound 50]: 10%.
With `Cc1ccc(C2c3ccsc3CCN2C(=O)CCC(=O)NCCCc2ccccc2)cc1` (stereo not drawn) [compound 51], the Emax at 10 µM under setting [3] worked out at 38%.
On the same count and under the same terms, with `Cc1cccc(C2c3ccsc3CCN2C(=O)CCC(=O)Nc2cccc3nsnc23)c1` (stereo not drawn) [compound 52] the figure was 15%; with `Cc1cccc(C2c3ccsc3CCN2C(=O)CCC(=O)Nc2ccc3cnn(C)c3c2)c1` (stereo not drawn) [compound 53], 28%; with `Cc1cccc(C2c3ccsc3CCN2C(=O)CCC(=O)NCc2ccccn2)c1` (stereo not drawn) [compound 54], 19%.
The compound `O=C(CCC(=O)N1CCc2sccc2C1c1ccccc1)NCCC1CCCCC1` (stereo not drawn) [compound 245] registered an EC50 under setting [2] of 690 nM.
In turn, `O=C(CCC(=O)N1CCc2sccc2C1c1ccccc1)NCC1CCCCC1` (stereo not drawn) [compound 247] came in with a concentration giving a half-maximal response (EC50) under setting [2] of 1440 nM.
Under setting [2], `Cc1ccc(CNC(=O)CCC(=O)N2CCc3sccc3C2c2ccccc2)cc1C(F)(F)F` (stereo not drawn) [compound 249] returned an EC50 of 347 nM.
The same measure, in the same setting: with `O=C(CCC(=O)N1CCc2sccc2C1c1ccccc1)NCc1ccc(F)c(C(F)(F)F)c1` (stereo not drawn) [compound 250] the figure was 517 nM; with `CCc1ccccc1C1c2ccsc2CCN1C(=O)CCC(=O)NCc1cccc(C(F)(F)F)c1` (stereo not drawn) [compound 251], 131 nM.
